Results as given in US8906416B2, “Xanthenedione derivatives for the treatment of pigmentation and skin ageing disorders” (Pierre Fabre Dermo-Cosmetique, priority 2010, dated 2014).

Assays:
B16-F10 cells = assay: Melanin assay test in B16-F10 cells; type: cell-based, murine; conditions: Mus musculus, B16-F10; 0.1 μM α-MSH stimulated, 72 hours treatment; read-out: Results activity B16-F10 IC50 (50% melanin synthesis inhibition)
Protocol: This involves a test of measuring the synthesis of melanin by colorimetric assay on a murine melanoma cell line: the B16-F10 line. This test enables the depigmenting power of active ingredients to be evaluated.
The B16-F10 cells are cultured in 96-well plates in DMEM medium, supplemented with FCS (foetal calf serum), and incubated 24 hours at 37° C., 5% CO2. The cells are then stimulated with 0.1 μM α-MSH (to stimulate the synthesis of melanin, the stimulation observed is around 150%) and treated 72 hours with the active ingredients to be tested. Each concentration of active ingredient is tested at least in triplicate. The total melanin followed by the intracellular melanin dissolved in the lysis buffer are then assayed by absorbance reading at 405 nm. The total proteins are assayed in the lysate and the results are expressed in mg melanin/mg proteins. The percentage of activity is calculated as follows:
[formula] A negative value indicates an inhibition, whereas a positive value indicates an induction of the synthesis of melanin. General Experimental Conditions: • Equipment: • CO2 cell incubator (Heraeus), Oven, Centrifuge (Heraeus), Laminar air flow fume hood, 96-well clear bottomed plates—Falcon, sterile cones—Treff Lab, Polylabo, Mithras LB940 (Berthold Technologies)-154/MIPA/003 Biological Equipment: • B16-F10 cell line between P10 and P20 (murine melanocytes) (ATCC, CRL-6475) • Reagents • DMEM without phenol red (GIBCOBRL, 31053-028), 200 mM Glutamax-I Supplement (GIBCOBRL, 35050-038), D-PBS (GIBCOBRL, 14190-094), Foetal calf serum (Invitrogen, 10270-098), Trypsine-EDTA (GIBCOBRL, 25300-054), NaOH (Sigma, S8045-500G), DMSO (Sigma, 471267-1L), Nle, Phe—Melanocyte Stimulating Hormone (Sigma, M-8764), Melanin (Sigma, M-0418), BCA-COPPER (SIGMA, B9643 AND C2284), BSA (SIGMA, P0914) B) Test for the Study of the Antioxidant Capacity by Chemiluminescence (Photochem Analytik Jena) Principle: […]

[1] = test system: Melanoderm-B (Black) reconstructed epidermis; assay: Reconstructed epidermis depigmenting activity, Melanoderm-B; type: cell-based; conditions: D3, D7, D10 and D14, 0.5% in Simplex formula
Source text: (§1) The compounds of examples 8 and 21 were formulated at the concentration of 0.5% in a Simplex formula according to the example of composition A. Melanoderm-B (Black) or Melanoderm A (Asian) (MatTek, USA) reconstructed epidermis models were used. The reference compound chosen is kojic acid titrated to 2% in aqueous solution. The culture medium is changed every day. The products are applied by topical mode on the epidermis every two days. For the application, the epidermises are rinsed with PBS and the product to be tested is then applied. A preliminary toxicity study made it possible to determine that the dose to apply for each treatment is 25 μL. The tissues were observed on D3, D7, D10, D14 (Melanoderm B) or D6, D10, D14 and D21 (Melanoderm A) by 3 independent experts.

[2] = test system: Melanoderm A (Asian) reconstructed epidermis; assay: Reconstructed epidermis depigmenting activity, Melanoderm A; type: cell-based
Source text: as §1, with “experts. The formula containing example 8 was also tested in a Melanoderm-A (Asian) model. The coloration of the epidermis is compared to that of the simplex control formula.” for “experts.”

IC50 (B16-F10 cells) [µM]	Structure (SMILES)	Coloration of the epidermis compared to negative control (water) [1]	Melanin assay: reduction of melanin with respect to epidermises treated by the Simplex control formula ([2]; 0.5% in Simplex formula) [µg]	Coloration of the epidermis compared to the simplex control formula ([2]; D6, D10, D14, D21, 0.5% in Simplex formula)
69	COc1cc(C2C3=C(CC(C)(C)CC3=O)OC3=C2C(=O)CC(C)(C)C3)ccc1O[C@@H]1OC(CO)[C@@H](O)C(O)C1O (stereo in doubt) [Example 21, 9-(3-methoxy-4-((3S,4 S,5S)-3,4,5-trihydroxy-6-(hydroxymethyl)tetrahydro-2H-pyran-2-yloxy)phenyl)-3,3,6,6-tetramethyl-3,4,5,6,7,9-hexahydro-1H-xanthene-1,8(2H)-dione]	macroscopic depigmenting effect		
	CCCCCCCCCCCCCCCC(=O)Oc1ccc(C2C3=C(CC(C)(C)CC3=O)OC3=C2C(=O)CC(C)(C)C3)cc1OC [Example 8, 2-methoxy-4-(3,3,6,6-tetramethyl-1,8-dioxo-2,3,4,5,6,7,8,9-octahydro-1H-xanthen-9-yl)phenyl palmitate]	macroscopic depigmenting effect	4.1	macroscopic depigmenting effect
